Molecular target: Indoleamine 2,3-dioxygenase 1 (Homo sapiens, UniProt P14902)
Test: Inhibition of IDO1 in IFN-gamma stimulated human HeLa cells incubated for 48 hrs by fluorescence microplate reader assay

Sequence of Indoleamine 2,3-dioxygenase 1 (P14902 whole entry): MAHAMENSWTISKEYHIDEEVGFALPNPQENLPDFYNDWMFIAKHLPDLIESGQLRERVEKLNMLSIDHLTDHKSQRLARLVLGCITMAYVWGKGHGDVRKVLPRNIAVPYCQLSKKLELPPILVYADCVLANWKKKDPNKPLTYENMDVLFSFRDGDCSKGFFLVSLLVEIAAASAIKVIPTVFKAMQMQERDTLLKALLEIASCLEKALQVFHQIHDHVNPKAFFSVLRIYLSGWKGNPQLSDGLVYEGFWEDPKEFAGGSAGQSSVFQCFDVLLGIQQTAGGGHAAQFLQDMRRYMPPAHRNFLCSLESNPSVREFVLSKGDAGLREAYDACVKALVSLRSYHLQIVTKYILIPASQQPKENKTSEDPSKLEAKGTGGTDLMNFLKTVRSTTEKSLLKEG

Row | SMILES | IC50 [pM]
1 | CC(=O)NC1CCN(C(=O)c2nn(CC(=O)N3CCN(c4cccc(C)c4Cl)CC3)c3c2C2CCCCC2C3)CC1 (configuration not stated) | 590
2 | Cc1cccc(N2CCN(C(=O)Cn3nc(C(=O)N4CCC5(CO)CC4C5)c4c3C[C@H]3C[C@@H]43)CC2)c1C | < 510

Reference: ChEMBL document CHEMBL4831552, “Novel Substituted Piperazine Amide Compounds as Indoleamine-2,3-dioxygenase (IDO) Inhibitors” (ACS Med Chem Lett, 2021)
